Values quoted from earlier work in patent US10729793B2, “Method for imaging arthritis” (GUY'S AND ST THOMAS' HOSPITAL NHS FOUNDATION TRUST, priority 2015, dated 2020).
*1 amine or outer side, *2 acyl side, *3 side chain or, on linkers, in order; H or OH if unused. Where a SMILES comes first, the peptide text is derived from it. Bridges are numbered along the chain shown (N, C = ends). Side-chain parts run from the residue outwards. The star is where a group is joined. X1 = C/C(=N/O)C(C)(C)NCCC(CCNC(C)(C)/C(C)=N\O)CCN*; Glutaryl = O=C(CCCC(=O)[*:2])[*:1]; X2 = NC(=O)COCC(=O)NCCOCCOCCOCCN*

Experiments:
αvβ3 integrin = αvβ3 integrin (Homo sapiens, UniProt P05106+P06756); conditions: in vitro studies
αvβ3 integrin, sequence (P06756 31-889 limits assumed): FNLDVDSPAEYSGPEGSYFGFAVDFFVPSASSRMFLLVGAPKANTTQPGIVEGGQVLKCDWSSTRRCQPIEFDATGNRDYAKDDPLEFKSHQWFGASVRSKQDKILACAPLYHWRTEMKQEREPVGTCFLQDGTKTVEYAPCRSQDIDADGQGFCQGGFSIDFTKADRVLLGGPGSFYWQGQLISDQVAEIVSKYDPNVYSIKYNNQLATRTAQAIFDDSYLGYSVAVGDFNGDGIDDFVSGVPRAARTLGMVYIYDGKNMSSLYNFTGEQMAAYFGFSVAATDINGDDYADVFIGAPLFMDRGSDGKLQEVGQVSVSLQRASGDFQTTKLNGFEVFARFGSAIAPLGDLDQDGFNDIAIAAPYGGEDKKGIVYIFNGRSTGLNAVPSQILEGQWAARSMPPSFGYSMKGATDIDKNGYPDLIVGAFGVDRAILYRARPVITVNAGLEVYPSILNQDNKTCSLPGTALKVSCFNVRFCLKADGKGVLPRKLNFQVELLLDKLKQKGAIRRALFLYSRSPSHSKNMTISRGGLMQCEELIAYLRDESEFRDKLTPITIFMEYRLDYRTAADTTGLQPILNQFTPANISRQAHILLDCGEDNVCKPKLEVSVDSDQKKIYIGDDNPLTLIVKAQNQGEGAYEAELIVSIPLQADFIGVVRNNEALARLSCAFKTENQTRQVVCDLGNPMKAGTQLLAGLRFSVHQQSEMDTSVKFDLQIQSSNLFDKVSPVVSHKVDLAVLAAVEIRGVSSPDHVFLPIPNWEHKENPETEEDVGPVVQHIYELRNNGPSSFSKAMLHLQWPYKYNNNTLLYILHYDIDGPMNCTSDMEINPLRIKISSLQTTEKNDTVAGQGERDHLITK
αvβ3 integrin, sequence (P06756 891-1048 partner limits assumed): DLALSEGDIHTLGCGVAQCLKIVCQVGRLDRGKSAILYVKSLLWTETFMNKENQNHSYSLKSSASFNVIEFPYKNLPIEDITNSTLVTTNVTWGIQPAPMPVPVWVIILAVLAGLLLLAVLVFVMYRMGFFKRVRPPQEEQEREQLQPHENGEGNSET
αvβ3 integrin, sequence (P05106 27-788): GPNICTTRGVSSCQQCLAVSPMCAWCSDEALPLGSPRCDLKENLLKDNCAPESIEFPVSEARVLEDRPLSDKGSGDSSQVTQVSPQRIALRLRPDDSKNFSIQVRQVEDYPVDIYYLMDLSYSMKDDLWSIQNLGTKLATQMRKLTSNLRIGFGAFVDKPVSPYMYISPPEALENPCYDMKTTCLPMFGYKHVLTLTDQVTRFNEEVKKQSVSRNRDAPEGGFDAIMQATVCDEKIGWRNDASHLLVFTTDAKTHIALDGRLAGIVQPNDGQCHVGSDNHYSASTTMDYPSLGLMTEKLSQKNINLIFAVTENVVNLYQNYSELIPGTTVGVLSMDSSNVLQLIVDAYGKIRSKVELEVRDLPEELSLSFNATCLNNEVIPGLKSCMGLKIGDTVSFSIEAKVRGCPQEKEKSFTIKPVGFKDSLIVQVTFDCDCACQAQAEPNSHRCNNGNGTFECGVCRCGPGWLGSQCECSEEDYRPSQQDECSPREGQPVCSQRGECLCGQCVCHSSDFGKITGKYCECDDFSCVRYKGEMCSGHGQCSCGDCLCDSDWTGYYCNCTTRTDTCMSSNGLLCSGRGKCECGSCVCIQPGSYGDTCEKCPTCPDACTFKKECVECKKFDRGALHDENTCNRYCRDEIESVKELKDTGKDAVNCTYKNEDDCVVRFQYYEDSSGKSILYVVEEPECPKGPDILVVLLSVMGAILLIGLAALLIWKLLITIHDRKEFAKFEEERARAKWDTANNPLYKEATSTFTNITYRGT

[1] = healthy volunteers
[2] = 10 subjects, at 4 months

binding affinity for the αvβ3 integrin (αvβ3 integrin): high binding affinity | mean elimination half-life [1]: approximately one | antibodies to the peptide (immunogenicity) [2]: no detectable antibodies
SMILES: C/C(=N/O)C(C)(C)NCCC(CCNC(=O)CCCC(=O)NCCCC[C@@H]1NC(=O)CSC[C@@H](C(=O)NCCOCCOCCOCCNC(=O)COCC(N)=O)NC(=O)[C@H](Cc2ccccc2)NC(=O)[C@@H]2CSSC[C@H](NC1=O)C(=O)N[C@@H](CCCNC(=N)N)C(=O)NCC(=O)N[C@@H](CC(=O)O)C(=O)N2)CCNC(C)(C)/C(C)=N\O (stereo partly drawn) [NC100692, maraciclatide] ({CH2CO}-K([Glutaryl-X1])CRGDCFC-X2; disulfide 2-6; thioether N-8)
